Values after ≈ are worked out from the molar mass of the structure shown.
Assays:
[1] = Inhibition of Staphylococcus aureus PBP2a
Bacillus subtilis = assay: Antimicrobial activity against wild type Bacillus subtilis 168 after 18 hrs by serial dilution method; type: functional; conditions: subsp. subtilis str. 168, 18 h
[2] = Inhibition of Escherichia coli PBP4 after 30 mins by SDS-PAGE
[3] = Inhibition of Escherichia coli BL21(DE3) PBP2 after 30 mins by SDS-PAGE
Bacillus licheniformis = assay: Antimicrobial activity against Bacillus licheniformis NRS 1264 after 18 hrs by serial dilution method; type: functional; conditions: NRS 1264, 18 h
[4] = Inhibition of Escherichia coli PBP3 after 30 mins by SDS-PAGE
[5] = Inhibition of Escherichia coli PBP1a/1b after 30 mins by SDS-PAGE
[6] = Inhibition of Bacillus subtilis 168 PBP1 after 30 mins by SDS-PAGE; set-up: species or system Bacillus subtilis subsp. subtilis str. 168
[7] = Inhibition of Escherichia coli PBP5/6 after 30 mins by SDS-PAGE
Escherichia coli = assay: Antimicrobial activity against wild type Escherichia coli MM 294 after 18 hrs by serial dilution method; type: functional; conditions: MM 294, 18 h
[8] = molecular target: T1, Penicillin-binding protein 3 (Bacillus subtilis (strain 168), UniProt P42971); assay: Inhibition of Bacillus subtilis 168 PBP3 after 30 mins by SDS-PAGE; set-up: species or system Bacillus subtilis subsp. subtilis str. 168
T1 sequence (P42971 whole entry): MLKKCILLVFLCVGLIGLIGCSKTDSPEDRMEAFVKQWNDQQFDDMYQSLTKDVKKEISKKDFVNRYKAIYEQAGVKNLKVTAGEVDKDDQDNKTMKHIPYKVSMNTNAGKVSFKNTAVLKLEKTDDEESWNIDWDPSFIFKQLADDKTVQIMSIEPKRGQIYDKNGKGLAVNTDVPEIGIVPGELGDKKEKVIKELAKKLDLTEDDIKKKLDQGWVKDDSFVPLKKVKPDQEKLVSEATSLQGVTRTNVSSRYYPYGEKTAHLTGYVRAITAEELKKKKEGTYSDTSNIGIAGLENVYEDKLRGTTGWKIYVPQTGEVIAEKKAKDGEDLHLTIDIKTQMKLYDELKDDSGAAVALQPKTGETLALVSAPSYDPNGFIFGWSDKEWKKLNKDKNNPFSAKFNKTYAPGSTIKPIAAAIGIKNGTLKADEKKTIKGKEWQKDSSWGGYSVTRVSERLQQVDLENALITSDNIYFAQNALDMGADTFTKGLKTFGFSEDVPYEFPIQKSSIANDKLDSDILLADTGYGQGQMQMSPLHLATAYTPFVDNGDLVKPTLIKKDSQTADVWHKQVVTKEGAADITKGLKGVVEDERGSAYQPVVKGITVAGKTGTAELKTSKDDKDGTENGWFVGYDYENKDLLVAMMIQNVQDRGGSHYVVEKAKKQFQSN

[9] = system: Staphylococcus epidermidis; assay: Antimicrobial activity against wild type Staphylococcus epidermidis ATCC 12228 after 18 hrs by serial dilution method; type: functional; conditions: ATCC 12228, 18 h
[10] = molecular target: T2, D-alanyl-D-alanine carboxypeptidase DacA (Bacillus subtilis (strain 168), UniProt P08750); assay: Inhibition of Bacillus subtilis 168 PBP5 after 30 mins by SDS-PAGE; set-up: species or system Bacillus subtilis subsp. subtilis str. 168
T2 sequence (P08750 whole entry): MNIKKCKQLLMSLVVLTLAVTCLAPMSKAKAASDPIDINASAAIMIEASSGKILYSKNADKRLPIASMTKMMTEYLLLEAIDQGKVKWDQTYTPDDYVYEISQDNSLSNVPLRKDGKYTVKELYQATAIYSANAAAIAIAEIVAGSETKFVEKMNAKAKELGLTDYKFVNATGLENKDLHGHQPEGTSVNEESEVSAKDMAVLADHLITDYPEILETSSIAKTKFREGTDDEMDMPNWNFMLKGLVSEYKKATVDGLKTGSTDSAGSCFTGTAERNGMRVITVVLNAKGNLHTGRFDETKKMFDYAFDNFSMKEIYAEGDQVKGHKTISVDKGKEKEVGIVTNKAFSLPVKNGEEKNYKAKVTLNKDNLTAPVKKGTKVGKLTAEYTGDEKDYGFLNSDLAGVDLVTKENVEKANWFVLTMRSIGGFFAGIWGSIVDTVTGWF

[11] = molecular target: T3, Penicillin-binding protein 4 (Bacillus subtilis (strain 168), UniProt P40750); assay: Inhibition of Bacillus subtilis 168 PBP4 after 30 mins by SDS-PAGE; set-up: species or system Bacillus subtilis subsp. subtilis str. 168
T3 sequence (P40750 whole entry): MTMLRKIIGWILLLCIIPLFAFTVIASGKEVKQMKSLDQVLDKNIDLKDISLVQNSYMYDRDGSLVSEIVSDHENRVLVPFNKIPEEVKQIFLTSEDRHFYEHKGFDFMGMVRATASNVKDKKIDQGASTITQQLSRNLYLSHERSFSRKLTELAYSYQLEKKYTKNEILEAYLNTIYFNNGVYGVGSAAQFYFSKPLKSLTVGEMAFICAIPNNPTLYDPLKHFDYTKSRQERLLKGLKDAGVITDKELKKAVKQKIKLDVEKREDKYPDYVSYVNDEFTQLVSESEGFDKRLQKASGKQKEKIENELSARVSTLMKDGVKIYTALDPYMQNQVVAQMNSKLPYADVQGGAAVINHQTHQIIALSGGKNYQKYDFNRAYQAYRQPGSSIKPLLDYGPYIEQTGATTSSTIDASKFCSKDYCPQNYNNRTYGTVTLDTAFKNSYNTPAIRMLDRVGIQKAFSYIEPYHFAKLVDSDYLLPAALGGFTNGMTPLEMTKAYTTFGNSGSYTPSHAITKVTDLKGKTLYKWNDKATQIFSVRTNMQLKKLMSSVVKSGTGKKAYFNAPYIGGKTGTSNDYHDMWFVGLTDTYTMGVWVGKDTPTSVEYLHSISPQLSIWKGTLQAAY

[12] = Inhibition of Bacillus subtilis 168 PBP2 after 30 mins by SDS-PAGE; set-up: species or system Bacillus subtilis subsp. subtilis str. 168

| MIC (Bacillus subtilis) [µM] | kinact/Ki [6] [M⁻¹ s⁻¹] | kinact/Ki [12] [M⁻¹ s⁻¹] | SMILES | Second-order inactivation rate constant (kinact/Ki) [1] [M⁻¹ s⁻¹] | Ki [2] [M⁻¹ s⁻¹] | Ki [3] [M⁻¹ s⁻¹] | MIC (Bacillus licheniformis) [µM] | Ki [4] [M⁻¹ s⁻¹] | Ki [5] [M⁻¹ s⁻¹] | Ki [6] [M⁻¹ s⁻¹] | Ki [7] [M⁻¹ s⁻¹] | MIC (Escherichia coli) [µM] | Ki [8] [M⁻¹ s⁻¹] | MIC [9] [µM] | Ki [10] [M⁻¹ s⁻¹] | Ki [11] [M⁻¹ s⁻¹] | Ki [12] [M⁻¹ s⁻¹] |
| --- | --- | --- | --- | --- | --- | --- | --- | --- | --- | --- | --- | --- | --- | --- | --- | --- | --- |
|  |  |  | CC1=CN2C(=O)[C@@H](NC(=O)[C@H](N)c3ccccc3)[C@H]2SC1 | 0.34 |  |  |  |  |  |  |  |  |  |  |  |  |  |
|  |  |  | CC(=O)OCC1=C(C(N)=O)N2C(=O)[C@@H](NC(=O)Cc3cccs3)[C@H]2SC1 | 1.3 |  |  |  |  |  |  |  |  |  |  |  |  |  |
| 25 (≈ 9.11 µg/mL) |  |  | COC(=O)[C@@H]1N2C(=O)[C@@H](NC(=O)COc3ccccc3)[C@H]2SC1(C)C | 1.5 |  |  |  |  |  |  |  |  |  |  |  |  |  |
| 1400 (≈ 491 µg/mL) | 110000 | 19000 | CC1(C)S[C@@H]2[C@H](NC(=O)COc3ccccc3)C(=O)N2[C@H]1C(=O)O [PENICILLIN V] |  | 3200 | 128 | 1500 (≈ 526 µg/mL) | 420 | 184 |  | 96 | 750 (≈ 263 µg/mL) | 28 | 370 (≈ 130 µg/mL) | 620 |  |  |

| SMILES | MIC (Bacillus subtilis) [µM] | kinact/Ki [6] [M⁻¹ s⁻¹] | kinact/Ki [12] [M⁻¹ s⁻¹] | Second-order inactivation rate constant (kinact/Ki) [1] [M⁻¹ s⁻¹] | Ki [2] [M⁻¹ s⁻¹] | Ki [3] [M⁻¹ s⁻¹] | MIC (Bacillus licheniformis) [µM] | Ki [4] [M⁻¹ s⁻¹] | Ki [5] [M⁻¹ s⁻¹] | Ki [6] [M⁻¹ s⁻¹] | Ki [7] [M⁻¹ s⁻¹] | MIC (Escherichia coli) [µM] | Ki [8] [M⁻¹ s⁻¹] | MIC [9] [µM] | Ki [10] [M⁻¹ s⁻¹] | Ki [11] [M⁻¹ s⁻¹] | Ki [12] [M⁻¹ s⁻¹] |
| --- | --- | --- | --- | --- | --- | --- | --- | --- | --- | --- | --- | --- | --- | --- | --- | --- | --- |
| CC1(C)S[C@@H]2[C@H](NC(=O)COc3ccccc3)C(=O)N2[C@H]1C(N)=O | 2.3 (≈ 0.804 µg/mL) |  |  | 2 | 30 | 1.5 | 1.5 (≈ 0.524 µg/mL) | 18 | 0.74 | 340 | 0.6 | 10000 (≈ 3490 µg/mL) | 5.3 | 95 (≈ 33.2 µg/mL) | 17 | 190 | 440 |

— ChEMBL document CHEMBL3112452, “Neutral β-Lactams Inactivate High Molecular Mass Penicillin-Binding Proteins of Class B1, Including PBP2a of MRSA” (ACS Med Chem Lett, 2014)
